Measured values reported in US6946475B1, “Anticancer calcium channel blockers” (University of Virginia Patent Foundation, priority 1999, dated 2005).
Where two headings read alike, the source gives them in different places.

What was measured:
[1] = test system: MDA-361 cells (breast cancer cell); test: Measurement of cellular proliferation, MDA-361 cells; assay type: cell-based; details: for Effect on proliferation of MDA-361 cells: 48 hours, FIGS. 10-39
Procedure: (§1) Measurement of cellular proliferation: LNCaP cells at 2.5×10^4/well or PC3 cells at 5×10^4/well, both in a final volume of 100 μl, were plated in triplicate in standard flat bottom 96 well tissue culture plates in the presence of drug or vehicle (DMSO). Unless otherwise indicated, cells were grown for 48 hours at 37° C. in a CO2 incubator. Relative cell growth was determined with the CellTiter 96 aqueous cell proliferation assay (Promega, Madison, Wis.) as described by the manufacturer using an automated plate reader. Results were calculated in a blinded fashion and are means of triplicate determinations.
(§2) For the 48 hour proliferation, cells were cultured with calcium channel antagonists or without calcium channel antagonists. The IC50 values of the calcium channel antagonists were determined.
(§3) Using the measurement cell proliferation assay described hereinabove, the cell lines Jurkat, LNCap (prostate cancer cell), PC-31 (prostate cancer cell), DU145 (prostate cancer cell), MDA-468 (breast cancer cell), MDA-36 (Breast cancer cell), MCF-7 (breast cancer cell), MIA PaCa-2 (pancreatic cancer cell), Hep G2 (liver cancer cell), A549 (non-small cell lung cancer cells), NCI H460 (non-small cell lung cancer cells), HT-29 (colon cancer cell), HCT-116 (colon cancer cell) and SK OV-3 (ovarian cancer cell) were cultured in the presence of TH-1177, TH-1205, TH-1201, TH-2109, TH-2029, TH-2043, TN-2085 and TH-2279.

[2] = test system: LNCaP prostate cancer cells; test: Measurement of cellular proliferation, LNCaP cells; for Effect on proliferation of LNCaP cells: test concentration or dose not given here; assay type: cell-based, human; details: for Effect on proliferation of LNCaP cells: FIGS. 10-39
Procedure: as §1, §2, §3

Jurkat cells = test: Measurement of cellular proliferation, Jurkat cells; assay type: cell-based; details: for Effect on proliferation of Jurkat cells: FIGS. 10-39
Procedure: as §1, §2, §3

[3] = test system: PC3 prostate cancer cells; test: Measurement of cellular proliferation, PC3 cells; assay type: cell-based, human; details: for Effect on proliferation of PC3 cells: 48 hours, FIGS. 10-39; for IC50: PC-3, 48 hours, read-out: PROLIFERATION IC50 PC-3
Procedure: as §1, §2, §3

[4] = test system: MDA-468 (breast cancer cell); test: Measurement of cellular proliferation, MDA-468 cells; for Effect on proliferation of MDA-468 cells: test concentration or dose not given here; assay type: cell-based; details: for Effect on proliferation of MDA-468 cells: 48 hours, FIGS. 10-39; for IC50: MDA-468, 48 hours
Procedure: as §1, §2, §3

[5] = test system: HCT-116 (colon cancer cell); test: Measurement of cellular proliferation, HCT-116 cells; assay type: cell-based; details: HCT 116, 48 hours
Procedure: as §1, §2, §3

[6] = test system: NCI H460 (non-small cell lung cancer cells); test: Measurement of cellular proliferation, NCI H460 cells; assay type: cell-based; details: NCI H460, 48 hours; read-out: PROLIFERATION IC50 NCl H460
Procedure: as §1, §2, §3

[7] = test system: MCF-7 (breast cancer cell); test: Measurement of cellular proliferation, MCF-7 cells; assay type: cell-based; details: MCF-7, 48 hours
Procedure: as §1, §2, §3

[8] = test system: A549 (non-small cell lung cancer cells); test: Measurement of cellular proliferation, A549 cells; assay type: cell-based; details: A549, 48 hours
Procedure: as §1, §2, §3

[9] = test system: SK OV-3 (ovarian cancer cell); test: Measurement of cellular proliferation, SK OV-3 cells; assay type: cell-based; details: SK-OV-3, 48 hours
Procedure: as §1, §2, §3

[10] = test system: HT-29 (colon cancer cell); test: Measurement of cellular proliferation, HT-29 cells; assay type: cell-based; details: HT-29, 48 hours
Procedure: as §1, §2, §3

[11] = test system: MIA PaCa-2 (pancreatic cancer cell); test: Measurement of cellular proliferation, MIA PaCa-2 cells; assay type: cell-based; details: MIA PaCa-2, 48 hours
Procedure: as §1, §2, §3

[12] = test system: DU145 (prostate cancer cell); test: Measurement of cellular proliferation, DU145 cells; assay type: cell-based; details: DU 145, 48 hours
Procedure: as §1, §2, §3

[13] = test system: Hep G2 (liver cancer cell); test: Measurement of cellular proliferation, Hep G2 cells; assay type: cell-based; details: Hep G2, 48 hours
Procedure: as §1, §2, §3

[14] = MDA-361, 48 hours, read-out: PROLIFERATION IC50 MDA-361
[15] = LNCaP, 48 hours, read-out: PROLIFERATION IC50 LNCaP
[16] = Jurkat, 48 hours, read-out: PROLIFERATION IC50 Jurkat
[17] = Example 7, MDA-361, read-out: cell proliferation test of Example 6 repeated, MDA-361
[18] = Example 7, LNCaP, read-out: cell proliferation test of Example 6 repeated, LNCaP
[19] = Example 7, Jurkat, read-out: cell proliferation test of Example 6 repeated, Jurkat

Structure (SMILES) | IC50 [1, 14] [µM] | IC50 [5] [µM] | IC50 [2, 15] [µM] | IC50 [7] [µM] | IC50 [8] [µM] | IC50 [9] [µM] | IC50 [10] [µM] | IC50 (Jurkat cells; [16]) [µM] | IC50 [3] [µM] | IC50 [11] [µM] | IC50 [4] [µM] | IC50 [12] [µM] | IC50 [13] [µM] | Effect on proliferation of MDA-361 cells [1] | Effect on proliferation of LNCaP cells ([2]; 48 hours) | Effect on proliferation of Jurkat cells (Jurkat cells; 48 hours) | Effect on proliferation of PC3 cells [3] | Effect on proliferation of MDA-468 cells [4] | IC50 [6] [µM] | other results
c1ccc(C(CN2CCCCC2)c2ccccc2)cc1 [MMR-64] |  |  |  |  |  |  |  |  |  |  |  |  |  | inhibition | inhibition | inhibition | inhibition | inhibition |  | 
c1ccc(C(CN2CCC(COC(c3ccccc3)c3ccccc3)CC2)c2ccccc2)cc1 [MMR-70] |  |  |  |  |  |  |  |  |  |  |  |  |  | inhibition | inhibition | inhibition | inhibition | inhibition |  | 
COc1ccc(CCN2CCC(COC(c3ccccc3)c3ccccc3)CC2)cc1 [TH-1087] |  |  |  |  |  |  |  |  |  |  |  |  |  | concentration dependent inhibition | concentration dependent inhibition | concentration dependent inhibition | concentration dependent inhibition | concentration dependent inhibition |  | 
COc1ccc(CCN2CCCC2COC(c2ccccc2)c2ccccc2)cc1 (stereo not drawn) [TH-1113] |  |  |  |  |  |  |  |  |  |  |  |  |  | concentration dependent inhibition | concentration dependent inhibition | concentration dependent inhibition | concentration dependent inhibition | concentration dependent inhibition |  | 
COc1ccc(CCN2CCCC(COC(c3ccccc3)c3ccc(Cl)cc3)C2)cc1 (stereo not drawn) [TH-1205] | 19 | 30 | 5 | 70 | 93 | 33 | ~100 | 11 | 23 | 17 | 13 | 21 | 40 | concentration dependent inhibition | concentration dependent inhibition | concentration dependent inhibition | concentration dependent inhibition | concentration dependent inhibition | 35 | 
COc1ccc(CCN2CCCC2COC(c2ccccc2)c2ccc(Cl)cc2)cc1 (stereo not drawn) [TH-1211] | 14 | 32 | 3 | 24 | 41 | 23 | ~90 | 4 | 17 | 17 | 11 | 13 | 20 | concentration dependent inhibition | concentration dependent inhibition | concentration dependent inhibition | concentration dependent inhibition | concentration dependent inhibition | 13 | 
COc1ccc(CCN2CCC[C@H]2COC(c2ccc(Cl)cc2)c2ccc(Cl)cc2)cc1 [TH-2019] | 23 | 31 | 4 | 30 | 72 | 30 | ~100 | 7 | 19 | 17 | 21 | 28 | 30 |  |  |  |  |  | 12 | 
COc1ccc(CCN2CCC(COC(c3ccccc3)c3ccc(Cl)cc3)CC2)cc1 (stereo not drawn) [TH-2029] | 16 | 18 | 5 | 37 | 26 | 24 | ~60 | 11 | 18 | 17 | 10 | 17 | 30 |  |  |  |  |  | 24 | 
COc1ccccc1CCN1CCC[C@H]1COC(c1ccccc1)c1ccc(Cl)cc1 (stereo partly drawn) [TH-3104] |  |  |  |  |  |  |  |  |  |  |  |  |  |  |  |  |  |  |  | IC50 [1, 17]: 13 µM; IC50 [2, 18]: 2.4 µM; IC50 (Jurkat cells; [19]): 3.8 µM
COc1cccc(CCN2CCC[C@H]2COC(c2ccccc2)c2ccc(Cl)cc2)c1 (stereo partly drawn) [TH-3105] |  |  |  |  |  |  |  |  |  |  |  |  |  |  |  |  |  |  |  | IC50 [1, 17]: 29 µM; IC50 [2, 18]: 3.2 µM; IC50 (Jurkat cells; [19]): 5 µM

Continued, in another order:

IC50 [1, 14] [µM] | IC50 [5] [µM] | IC50 [2, 15] [µM] | IC50 [7] [µM] | IC50 [8] [µM] | IC50 [9] [µM] | IC50 [10] [µM] | IC50 (Jurkat cells; [16]) [µM] | IC50 [3] [µM] | IC50 [11] [µM] | IC50 [4] [µM] | IC50 [12] [µM] | IC50 [13] [µM] | Structure (SMILES) | Effect on proliferation of MDA-361 cells [1] | Effect on proliferation of LNCaP cells ([2]; 48 hours) | Effect on proliferation of Jurkat cells (Jurkat cells; 48 hours) | Effect on proliferation of PC3 cells [3] | Effect on proliferation of MDA-468 cells [4] | IC50 [6] [µM] | other results
13 | 10 | 4 | 29 | 20 | 23 | > 100 | 8 | 14 | 17 | 8 | 9 | > 100 | COc1ccc(CCN2CCC(COC(c3ccc(Cl)cc3)c3ccc(Cl)cc3)CC2)cc1 [TH-2043] |  |  |  |  |  | 10 | 
26 | 50 | 4 | 33 | 90 | 80 | ~60 | 10 | 36 | 17 | 14 | 41 | 28 | COc1ccc(CCCN2CCC[C@H]2COC2c3ccccc3-c3ccccc32)cc1 [TH-2085] |  |  |  |  |  | 31 | 
